Where two headings read alike, the source gives them in different places.

One assay concerns the target T1, c-kit (Homo sapiens, UniProt P10721).
T1 construct: MO7e (human megakaryocytic leukemia cell line) which had been arrested for 20 hr; endogenous in cells; host or cells: MO7e human megakaryocytic leukemia cell line
Description: Inhibitory activity against c-kit autophosphorylation (MO7e cells, h-SCF). Type of assay: cell-based. Conditions: for inhibition at 1 µM: Mo7e; for IC50: MO7e cells, read-out: c-kit IC50. Summed up:
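First, human megakaryocytic leukemia MO7e cells arrested 20 hr receive compound for one hour. Second, SCF stimulation (50 ng/ml) runs 5 min, after which cells are solubilized. Third, tyrosine-phosphorylated c-kit in the lysate is quantified by sandwich ELISA with absorbance at 450 nm.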

The target in the next assay is PDGF-R (Rattus norvegicus, UniProt Q05030). The assay can be described thus: PDGF-R autophosphorylation inhibition screening (dot plotting), vascular smooth muscle cells, PDGF-BB. Type of assay: cell-based. Conditions: for inhibition at 1 µM: figure in parentheses in −( ), at 1000 nM, read-out: PDGF (D) inhibition (%) at 1000 nM; for IC50: PDGF (D) column. The protocol:
PDGF-R Autophosphorylation Inhibition Screening (Dot Plotting)
Vascular smooth muscle cells (passage 5 to 10) collected from rat thoracic aorta by the explant method were planted at 8×10^3 cells per well in 96-well plates, subject to a serum starvation state, and 24 hr after the plantation then assayed.
A test compund was added, and the mixture was incubated at 37° C. for one hr. Thereafter, PDGF-BB was added to 50 ng/ml, and the mixture was incubated for 5 min, followed by washing with cold PBS. Lysate buffer (20 μl/well) was then added, SDS buffer ([…]) was added thereto, and 2 μl of the mixture was then spotted on a PDVF membrane.
Treatment was carried out with anti-mouse IgG which had been labelled with peroxidase after treatment with an anti-phosphotyrosine antibody, followed by development in an ECL color development kit (Amersham). Thereafter, the color intensity was quantitatively determined by image analysis.

The mark [1] stands for this setting: figure in parentheses in −( ), at 1000 nM.

PDGF-R, sequence (Q05030 32-1097): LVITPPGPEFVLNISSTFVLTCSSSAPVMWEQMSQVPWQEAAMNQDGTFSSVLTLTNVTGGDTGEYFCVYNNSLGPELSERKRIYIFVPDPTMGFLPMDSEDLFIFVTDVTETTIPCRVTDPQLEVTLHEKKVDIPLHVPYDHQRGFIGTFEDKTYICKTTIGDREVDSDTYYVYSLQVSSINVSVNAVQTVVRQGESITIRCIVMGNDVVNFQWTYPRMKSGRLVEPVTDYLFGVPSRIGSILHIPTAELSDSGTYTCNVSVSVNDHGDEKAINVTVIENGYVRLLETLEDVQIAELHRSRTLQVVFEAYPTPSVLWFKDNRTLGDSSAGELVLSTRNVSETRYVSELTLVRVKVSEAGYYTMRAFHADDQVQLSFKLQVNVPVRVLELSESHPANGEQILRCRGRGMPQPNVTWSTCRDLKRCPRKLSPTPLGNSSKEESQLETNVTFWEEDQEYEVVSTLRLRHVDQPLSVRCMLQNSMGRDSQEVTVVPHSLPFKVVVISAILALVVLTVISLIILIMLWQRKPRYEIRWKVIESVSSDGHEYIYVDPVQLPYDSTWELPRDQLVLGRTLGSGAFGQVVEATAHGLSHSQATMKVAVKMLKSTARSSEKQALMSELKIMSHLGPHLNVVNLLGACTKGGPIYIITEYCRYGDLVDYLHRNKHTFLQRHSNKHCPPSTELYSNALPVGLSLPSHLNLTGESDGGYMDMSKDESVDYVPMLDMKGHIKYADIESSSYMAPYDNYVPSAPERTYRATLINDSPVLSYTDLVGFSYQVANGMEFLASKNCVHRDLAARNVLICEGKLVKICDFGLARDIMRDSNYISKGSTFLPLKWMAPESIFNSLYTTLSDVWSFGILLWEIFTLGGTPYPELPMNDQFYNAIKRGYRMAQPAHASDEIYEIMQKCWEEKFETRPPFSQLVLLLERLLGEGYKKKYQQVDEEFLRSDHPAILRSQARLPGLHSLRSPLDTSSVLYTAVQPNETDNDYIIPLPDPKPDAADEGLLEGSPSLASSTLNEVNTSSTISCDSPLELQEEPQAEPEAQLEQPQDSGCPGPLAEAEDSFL
T1 sequence (P10721 26-976): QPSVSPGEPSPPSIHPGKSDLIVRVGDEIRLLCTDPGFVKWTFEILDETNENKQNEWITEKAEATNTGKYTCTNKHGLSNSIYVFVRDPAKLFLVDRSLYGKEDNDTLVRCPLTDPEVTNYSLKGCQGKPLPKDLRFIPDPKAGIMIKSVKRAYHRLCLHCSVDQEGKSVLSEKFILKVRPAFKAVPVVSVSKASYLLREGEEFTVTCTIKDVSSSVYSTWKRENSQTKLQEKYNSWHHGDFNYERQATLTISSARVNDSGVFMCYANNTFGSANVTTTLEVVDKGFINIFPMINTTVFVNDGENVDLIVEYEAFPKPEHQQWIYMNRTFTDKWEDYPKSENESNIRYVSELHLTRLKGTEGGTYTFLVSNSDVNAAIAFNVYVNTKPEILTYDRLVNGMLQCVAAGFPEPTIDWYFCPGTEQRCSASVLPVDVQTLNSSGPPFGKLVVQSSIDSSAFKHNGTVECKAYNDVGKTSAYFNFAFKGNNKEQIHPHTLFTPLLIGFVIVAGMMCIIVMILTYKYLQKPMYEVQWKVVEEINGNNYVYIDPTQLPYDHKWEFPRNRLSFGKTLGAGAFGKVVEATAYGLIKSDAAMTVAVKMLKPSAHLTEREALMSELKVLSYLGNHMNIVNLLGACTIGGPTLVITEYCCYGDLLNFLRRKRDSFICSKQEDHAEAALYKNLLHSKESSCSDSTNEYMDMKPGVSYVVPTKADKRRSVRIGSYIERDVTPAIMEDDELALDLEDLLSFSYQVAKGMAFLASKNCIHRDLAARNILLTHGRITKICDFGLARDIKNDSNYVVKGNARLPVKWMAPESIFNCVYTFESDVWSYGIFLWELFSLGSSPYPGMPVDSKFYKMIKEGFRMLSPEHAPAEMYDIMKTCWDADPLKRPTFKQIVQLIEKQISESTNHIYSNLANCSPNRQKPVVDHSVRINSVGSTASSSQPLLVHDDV

With `COc1cc2nccc(Oc3ccc(S(=O)(=O)CCOc4ccc(F)cc4)cc3)c2cc1OC` [Example 829, 4-[(6,7-Dimethoxy-4-quinolyl)oxy]phenyl [2-(4-fluorophenoxy)ethyl]sulfone], the inhibition at 1 µM stood at 10% at c-kit (setting [1]) and 30% at PDGF-R.
On the same counts, the results for `COc1cccc(OCCS(=O)(=O)c2ccc(Oc3ccnc4cc(OC)c(OC)cc34)cc2)c1` [Example 830, 4-[(6,7-Dimethoxy-4-quinolyl)oxy]phenyl [2-(3-methoxyphenoxy)ethyl]sulfone] are 10% and 23%.
As for `COc1cc2nccc(Oc3ccc(S(=O)(=O)CCOc4ccc(Cl)cc4Cl)cc3)c2cc1OC` [Example 831, 2-(2,4-Dichlorophenoxy)ethyl{4-[(6,7-dimethoxy-4-quinolyl)oxy]phenyl}sulfone], the inhibition at 1 µM at c-kit (setting [1]) amounted to 19%; at PDGF-R, 50%.
The like results for `COc1cc2nccc(Oc3ccc(S(=O)(=O)CCOc4cccc(Cl)c4)cc3)c2cc1OC` [Example 832, 2-(3-Chlorophenoxy)ethyl{4-[(6.7-dimethoxy-4-quinolyl)oxy]phenyl}sulfone] were, in that order, 21% and 35%.
The like results for `COc1cc2nccc(Oc3ccc(S(=O)(=O)CCOc4ccc(C)cc4)cc3)c2cc1OC` [Example 834, 4-[(6,7-Dimethoxy-4-quinolyl)oxy]phenyl [2-(4-methylphenoxy)ethyl]sulfone] were, in that order, 1% and 23%.
On to `COc1cc2nccc(Oc3ccc(S(=O)(=O)CCOc4ccccc4F)cc3)c2cc1OC` [Example 837, 4-[(6,7-Dimethoxy-4-quinolyl)oxy]phenyl [2-(2-fluorophenoxy)ethyl]sulfone], for which the inhibition at 1 µM was determined as 19% at c-kit (setting [1]) and 10% on PDGF-R.
On the same counts, the results for `COc1cc2nccc(Oc3ccc([S+]([O-])CCOc4ccc(F)cc4[N+](=O)[O-])cc3)c2cc1OC` (stereo not drawn) [Example 839, {4-[(6,7-Dimethoxy-4-quinolyl)oxy]phenyl}[2-(4-fluoro-2-nitrophenoxy)ethyl] sulfoxide] are 30% and 24%.
The like results for `CCCCCCCCCCCC(=O)NC(=S)Nc1ccc(Oc2ccnc3cc(OC)c(OC)cc23)cc1` [Example 1072, N-{4-[(6,7-Dimethoxy-4-quinolyl)oxy]phenyl}-N′-dodecanoylthiourea] were, in that order, 18% and 34%.
On the same counts, the results for `CCCCCCCCCCCCCC(=O)NC(=S)Nc1ccc(Oc2ccnc3cc(OC)c(OC)cc23)cc1` [Example 1073, N-{4-[(6,7-Dimethoxy-4-quinolyl)oxy]phenyl}-N′-tetradecanoylthiourea] are 20% and 23%.
On to `CCCCCCCCCCCC(=O)NC(=S)Nc1ccc(Oc2ccnc3cc(OC)c(OC)cc23)cc1F` [Example 1075, N-{4-[(6,7-Dimethoxy-4-quinolyl)oxy]-2-fluorophenyl}-N′-dodecanoylthiourea], for which the inhibition at 1 µM at c-kit (setting [1]) came to 31%; on PDGF-R, 17%.
The like results for `COc1cc2nccc(Oc3ccc(NC(=S)NC(=O)c4ccc([N+](=O)[O-])cc4)c(C)c3C)c2cc1OC` [Example 1081, N-{4-[(6,7-Dimethoxy-4-quinolyl)oxy]-2,3-dimethylphenyl}-N′-(4-nitrobenzoyl)thiourea] were, in that order, 47% and 50%.
Regarding `COc1cc2nccc(Oc3ccc(NC(=S)NC(=O)c4ccc(Cl)cc4Cl)c(C)c3C)c2cc1OC` [Example 1086, N-(2,4-Dichlorobenzoyl)-N′-{4-[(6,7-dimethoxy-4-quinolyl)oxy]-2,3-dimethylphenyl}thiourea], the figures for the inhibition at 1 µM on c-kit (setting [1]) and on PDGF-R were 19% and 48%, respectively.
The like results for `COc1cc2nccc(Oc3ccc(NC(=S)NC(=O)c4ccc([N+](=O)[O-])cc4)c(C)c3)c2cc1OC` [Example 1092, N-{4-[(6,7-Dimethoxy-4-quinolyl)oxy]-2-methylphenyl}-N′-(4-nitrobenzoyl)thiourea] were, in that order, 10% and 15%.
As for `COc1ccc(C(=O)NC(=S)Nc2ccc(Oc3ccnc4cc(OC)c(OC)cc34)cc2C)cc1` [Example 1095, N-{4-[(6,7-Dimethoxy-4-quinolyl)oxy]-2-methylphenyl}-N′-(4-methoxybenzoyl)thiourea], the inhibition at 1 µM at c-kit (setting [1]) was 25%; at PDGF-R, 20%.
The like results for `COc1cc2nccc(Oc3ccc(NC(=S)NC(=O)c4ccc(C)cc4)c(C)c3)c2cc1OC` [Example 1096, N-{4-[(6,7-Dimethoxy-4-quinolyl)oxy]-2-methylphenyl}-N′-(4-methylbenzoyl)thiourea] were, in that order, 3% and 30%.
Regarding `COc1ccc(C(=O)NC(=S)Nc2ccc(Oc3ccnc4cc(OC)c(OC)cc34)cc2F)c(OC)c1` [Example 1123, N-(2,4-Dimethoxybenzoyl)-N′-{4-[(6,7-dimethoxy-4-quinolyl)oxy]-2-fluorophenyl}thiourea], at c-kit (h-SCF stimulation), the IC50 was found to be 961 nM. Moreover, the inhibition at 1 µM at PDGF-R stood at 43%.
As for “N-{4-[(6,7-Dimethoxy-4-quinolyl)oxy]-2-fluorophenyl}-N′-(methylamino)urea [Example 611]”, the IC50 at c-kit (50 ng/ml h-SCF) turned out to be 1070 nM; on PDGF-R, 95 nM.
Take “{4-[(6,7-Dimethoxy-4-quinolyl)oxy]phenyl}[2-(3-methoxy-4-nitrophenoxy)ethyl] sulfoxide [Example 838]”: the “c-kit inhibition (%) at 1000 nM” value on c-kit (setting [1]) is “−(23) %”. Further, on PDGF-R (> means inhibition at indicated concentration not more than 50%, < not less than 50%), inhibition was half-maximal at 590 nM (IC50).

(Values after patent US7135466B2 (Kirin Beer Kabushiki Kaisha, priority 1999, dated 2006).)
